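48-hour exposure; five concentrations; linearly interpolated endpoints. GI50 is the concentration that inhibits growth by half. At the TGI there is no net growth.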
Legend:
Experiment in all cases: NCI anticancer screen, dose series, 48 h
[1] = system: A498 renal
[2] = system: SF-539 CNS
[3] = system: OVCAR-5 ovarian
[4] = system: DU-145 prostate
[5] = system: HOP-92 NSCLC
[6] = system: SNB-75 CNS
[7] = system: ACHN renal
[8] = system: MDA-MB-231 breast
[9] = system: LOX IMVI melanoma
[10] = system: OVCAR-8 ovarian
[11] = system: TK-10 renal
[12] = system: UO-31 renal
[13] = system: SK-MEL-28 melanoma
[14] = system: OVCAR-4 ovarian
[15] = system: UACC-62 melanoma
[16] = system: RXF 393 renal

Compound: C=C(C)[C@@H]1CC[C@]2(COCCCNCCCN)CC[C@]3(C)[C@H](CC[C@@H]4[C@@]5(C)CC[C@H](O)C(C)(C)[C@@H]5CC[C@]43C)[C@@H]12
- GI50 [1]: 1850 nM
- TGI [1]: 4210 nM
- GI50 [2]: 1770 nM
- TGI [2]: 3390 nM
- GI50 [3]: 1750 nM
- TGI [3]: 3230 nM
- GI50 [4]: 1940 nM
- TGI [4]: 3490 nM
- GI50 [5]: 1520 nM
- TGI [5]: 3140 nM
- GI50 [6]: 1730 nM
- TGI [6]: 3370 nM
- GI50 [7]: 1780 nM
- TGI [7]: 3240 nM
- GI50 [8]: 1850 nM
- TGI [8]: 3490 nM
- GI50 [9]: 234 nM
- TGI [9]: 2280 nM
- GI50 [10]: 2140 nM
- TGI [10]: 4880 nM
- GI50 [11]: 1840 nM
- TGI [11]: 3560 nM
- GI50 [12]: 1600 nM
- TGI [12]: 3030 nM
- GI50 [13]: 1750 nM
- TGI [13]: 3370 nM
- GI50 [14]: 1960 nM
- TGI [14]: 3730 nM
- GI50 [15]: 1770 nM
- TGI [15]: 3390 nM
- GI50 [16]: 1570 nM
- TGI [16]: 2960 nM

Source: PubChem BioAssay (NCI)
